Patent US10947271B2, “Antibacterial agents” (THE UNIVERSITY OF QUEENSLAND, priority 2014, dated 2021)

How the values were obtained:
[1] = Stability of compounds in human plasma
Protocol: Briefly test compounds (20 μM) were prepared from a 1 mM stock solution. The human plasma sample (200 μl) was diluted with 160 μl phosphate-buffer saline (PBS, pH 7.4) to a concentration of 50% v/v before use. Solutions were then vortexed and placed on a 37° C. shaker and shaken gently for 10 minutes. 40 μl of the test compounds were then added to the plasma sample and vortexed. For the reaction time t=0 hour, 50 μl of sample was immediately transferred into an eppendorf tube and quenched with 150 μl cold acetonitrile. The remaining plasma solution was incubated and shaken at 37° C. Other samples were collected at time points of 0, 1, 3, 6 and 24 hours whereby 50 μl aliquots were removed and quenched with 150 μl cold acetonitrile. All samples were placed in a 4° C. fridge for 10 minutes then centrifuged at 3000 rpm for 15 minutes. The supernatant (100 μl) was transferred to a glass vial insert for LCMS analysis. The percentage of test compounds remaining at the individual time points relative to sample at time point 0 hour were reported.
Plasma: Human Plasma (Pooled Normal Human Plasma Heparin Anticoagulant 50 mL (IPLA-2 N-04 lot IR09-1001, originally from Innovative Research and imported by BioCore).
All compounds in 100% water (40 μL in 400 μL assay volume equivalent […])
Compounds: 40 μL of the vancomycin derivative solution was added to 160 μL of PBS (pH 7.4) respectively in an Eppendorf tube. 600 μL of cold acetonitrile was added, the tube vortexed and transferred to a glass vial for LC-MS analysis.
Eucatropine: 200 μL of plasma and 190 μL of buffer were vortexed, shaken at 37° C. for 10 minutes. 10 μL of eucatropine solution was then added and the tube vortexed. A 50 μL aliquot was immediately transferred to an Eppendorf tube, 150 μL of cold acetonitrile added and the tube transferred to a 4° C. fridge for 10 minutes. The remaining plasma solution was then transferred to the incubator and shaken at 37° C. The tube was retrieved from the fridge, centrifuged at 3000 rpm for 15 min and 100 μL of supernatant transferred to a glass vial insert for LC-MS analysis. 50 μL aliquots were processed as above at 1, […], 3, 6 and 24 hours and 5 μL was injected into triple quad MS system for analysis. Vancomycin derivatives: 200 μL of plasma and 160 μL of buffer were vortexed and shaken at 37° C. for 10 minutes. 40 μL of compound was then added and the sample was processed as above.

[2] = system: Staphylococcus aureus MRSA ATCC 43300; experiment: MIC assay, S. aureus MRSA ATCC 43300; type: cell-based; conditions: 24 h incubation, visual reading
Method in brief: (§1)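 Twofold broth microdilution in Mueller Hinton broth; compounds tested from 8 μg/ml to 0.003 μg/ml. Mid-log cultures were inoculated at 5×10e5 CFU/mL and incubated 24 h at 37° C. MIC was the lowest concentration with no visible growth.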

[3] = system: Streptococcus pneumoniae MDR ATCC 700677; experiment: MIC assay, S. pneumoniae MDR ATCC 700677; type: cell-based; conditions: 24 h incubation, visual reading
Method in brief: as §1

[4] = system: Enterococcus faecium MDR Van A ATCC 51559; experiment: MIC assay, E. faecium MDR Van A ATCC 51559; type: cell-based; conditions: 24 h incubation, visual reading
Method in brief: as §1

[5] = 0 h (reference time point), 50% human plasma/PBS pH 7.4, 37° C.
[6] = 1 h, 50% human plasma/PBS pH 7.4, 37° C.
[7] = 3 h, 50% human plasma/PBS pH 7.4, 37° C.
[8] = 6 h, 50% human plasma/PBS pH 7.4, 37° C.
[9] = 24 h, 50% human plasma/PBS pH 7.4, 37° C.

| Molecule | % compound remaining after incubation in 50% human plasma [1, 5] | % compound remaining after incubation in 50% human plasma [1, 6] | % compound remaining after incubation in 50% human plasma [1, 7] | % compound remaining after incubation in 50% human plasma [1, 8] | % compound remaining after incubation in 50% human plasma [1, 9] | Minimum Inhibitory Concentration (MIC) Staph. aureus ATCC43300 [2] | Minimum Inhibitory Concentration (MIC) S. pneumoniae ATCC 700677 [3] | Minimum Inhibitory Concentration (MIC) E. faecium ATCC51559 [4] | % compound remaining after incubation in 50% human plasma ([1]; human, plasma, 0 h, pH 7.4) | % compound remaining after incubation in 50% human plasma ([1]; human, plasma, 1 h, pH 7.4) | % compound remaining after incubation in 50% human plasma ([1]; human, plasma, 3 h, pH 7.4) | % compound remaining after incubation in 50% human plasma ([1]; human, plasma, 6 h, pH 7.4) | % compound remaining after incubation in 50% human plasma ([1]; human, plasma, 24 h, pH 7.4) |
| --- | --- | --- | --- | --- | --- | --- | --- | --- | --- | --- | --- | --- | --- |
| CCCCCCCCCCC(=O)NCC(=O)N[C@@H](CO)C(=O)N[C@@H](CCCCN)C(=O)N[C@@H](CCCCN)C(=O)N[C@@H](CCCCN)C(=O)N[C@@H](CCCCNC(=O)[C@H]1NC(=O)[C@H]2NC(=O)[C@H](NC(=O)[C@@H]3NC(=O)[C@H](CC(N)=O)NC(=O)[C@H](NC(=O)[C@@H](CC(C)C)NC)[C@H](O)c4ccc(c(Cl)c4)Oc4cc3cc(c4O[C@@H]3O[C@H](CO)[C@@H](O)[C@H](O)[C@H]3O[C@H]3C[C@](C)(N)[C@H](O)[C@H](C)O3)Oc3ccc(cc3Cl)[C@H]2O)c2ccc(O)c(c2)-c2c(O)cc(O)cc21)C(=O)O [MCC_000082, nC10CO-GSKKK-K(Vanc)-OH] | 100% | 136% | 252% | 241% | 73% |  |  |  |  |  |  |  |  |
| CNC(CC(C)C)C(=O)NC1C(=O)NC(CC(N)=O)C(=O)NC2C(=O)NC3C(=O)NC(C(=O)NC(C(=O)NCCCCC(NC(=O)C(CCCCN)NC(=O)C(CCCCN)NC(=O)C(CCCCNC(=O)c4ccc(Oc5ccccc5)cc4)NC(=O)c4ccc(Oc5ccccc5)cc4)C(=O)O)c4cc(O)cc(O)c4-c4cc3ccc4O)C(O)c3ccc(c(Cl)c3)Oc3cc2cc(c3OC2OC(CO)C(O)C(O)C2OC2CC(C)(N)C(O)C(C)O2)Oc2ccc(cc2Cl)C1O (stereo not shown) [MCC_000217, (4-PhO-PhCO)-K(4-PhO-PhCO)-KK-K(Vanc)-OH] | 100% | 107% |  | 103% | 99% | xxxxx (xxxxx = <0.01) | xxxxx (xxxxx = <0.01) | xx (xx = 1-4) |  |  |  |  |  |
| CCCCCCCCCCCCCC(=O)N[C@@H](CCCCN)C(=O)N[C@@H](CCCCN)C(=O)N[C@@H](CCCCN)C(=O)N[C@@H](CCCCNC(=O)[C@H]1NC(=O)[C@H]2NC(=O)[C@H](NC(=O)[C@@H]3NC(=O)[C@H](CC(N)=O)NC(=O)[C@H](NC(=O)[C@@H](CC(C)C)NC)[C@H](O)c4ccc(c(Cl)c4)Oc4cc3cc(c4O[C@@H]3O[C@H](CO)[C@@H](O)[C@H](O)[C@H]3O[C@H]3C[C@](C)(N)[C@H](O)[C@H](C)O3)Oc3ccc(cc3Cl)[C@H]2O)c2ccc(O)c(c2)-c2c(O)cc(O)cc21)C(=O)O [MCC_000223, nC13CO-KKK-K(Vanc)-OH] | 100% | 174% | 164% | 170% | 139% | xxxxx (xxxxx = <0.01) | xxxxx (xxxxx = <0.01) | xxx (xxx = 0.1-<1) |  |  |  |  |  |

Next, values leading:

| % compound remaining after incubation in 50% human plasma [1, 5] | % compound remaining after incubation in 50% human plasma [1, 6] | % compound remaining after incubation in 50% human plasma [1, 7] | % compound remaining after incubation in 50% human plasma [1, 8] | % compound remaining after incubation in 50% human plasma [1, 9] | Minimum Inhibitory Concentration (MIC) Staph. aureus ATCC43300 [2] | Minimum Inhibitory Concentration (MIC) S. pneumoniae ATCC 700677 [3] | Minimum Inhibitory Concentration (MIC) E. faecium ATCC51559 [4] | % compound remaining after incubation in 50% human plasma ([1]; human, plasma, 0 h, pH 7.4) | % compound remaining after incubation in 50% human plasma ([1]; human, plasma, 1 h, pH 7.4) | % compound remaining after incubation in 50% human plasma ([1]; human, plasma, 3 h, pH 7.4) | % compound remaining after incubation in 50% human plasma ([1]; human, plasma, 6 h, pH 7.4) | % compound remaining after incubation in 50% human plasma ([1]; human, plasma, 24 h, pH 7.4) | Molecule |
| --- | --- | --- | --- | --- | --- | --- | --- | --- | --- | --- | --- | --- | --- |
| 100% | 98% | 137% | 85% | 87% | xxxxx (xxxxx = <0.01) | xxxxx (xxxxx = <0.01) | xxx (xxx = 0.1-<1) |  |  |  |  |  | CCCCCCCCCCCCCC(=O)N[C@@H](CCCCN)C(=O)N[C@@H](CCCCN)C(=O)NCC(=O)NCCNC(=O)[C@H]1NC(=O)[C@H]2NC(=O)[C@H](NC(=O)[C@@H]3NC(=O)[C@H](CC(N)=O)NC(=O)[C@H](NC(=O)[C@@H](CC(C)C)NC)[C@H](O)c4ccc(c(Cl)c4)Oc4cc3cc(c4O[C@@H]3O[C@H](CO)[C@@H](O)[C@H](O)[C@H]3O[C@H]3C[C@](C)(N)[C@H](O)[C@H](C)O3)Oc3ccc(cc3Cl)[C@H]2O)c2ccc(O)c(c2)-c2c(O)cc(O)cc21 [MCC_000226, nC13CO-KKG-NHC2NH-Vanc] |
| 100% | 102% | 102% | 93% | 94% | xxxxx (xxxxx = <0.01) | xxxxx (xxxxx = <0.01) | xx (xx = 1-4) |  |  |  |  |  | CCCCCCCCCCCCCC(=O)N[C@H](CCCCN)C(=O)N[C@H](CCCCN)C(=O)NCC(=O)NCCNC(=O)[C@H]1NC(=O)[C@H]2NC(=O)[C@H](NC(=O)[C@@H]3NC(=O)[C@H](CC(N)=O)NC(=O)[C@H](NC(=O)[C@@H](CC(C)C)NC)[C@H](O)c4ccc(c(Cl)c4)Oc4cc3cc(c4O[C@@H]3O[C@H](CO)[C@@H](O)[C@H](O)[C@H]3O[C@H]3C[C@](C)(N)[C@H](O)[C@H](C)O3)Oc3ccc(cc3Cl)[C@H]2O)c2ccc(O)c(c2)-c2c(O)cc(O)cc21 [MCC_000227, nC13CO-kkG-NHC2NH-Vanc] |
| 100% | 87% | 87% | 83% | 93% | xxxx (xxxx = 0.01-<0.1) | xxx (xxx = 0.1-<1) | xxxx (xxxx = 0.01-<0.1) |  |  |  |  |  | CCCCCCCCCCC(=O)N[C@@H](CCCCN)C(=O)N[C@@H](CCCCN)C(=O)N[C@@H](CCCCN)C(=O)N[C@@H](CCCCNC(=O)[C@H]1NC(=O)[C@H]2NC(=O)[C@H](NC(=O)[C@@H]3NC(=O)[C@H](CC(N)=O)NC(=O)[C@H](NC(=O)[C@@H](CC(C)C)NC)[C@H](O)c4ccc(c(Cl)c4)Oc4cc3cc(c4O[C@@H]3O[C@H](CO)[C@@H](O)[C@H](O)[C@H]3O[C@H]3C[C@](C)(N)[C@H](O)[C@H](C)O3)Oc3ccc(cc3Cl)[C@H]2O)c2ccc(O)c(c2)-c2c(O)cc(O)cc21)C(=O)O [MCC_000229, nC10CO-KKK-K(Vanc)-OH] |
|  |  |  |  |  |  |  |  | 100% | 77% | 64% | 51% | 3% | nC13CO-KKK-C(SS-nEt-NH-Vanc)-OH [MCC_000535, reference compound] |
